From patent US20260028326A1, “COMPOUND BASED ON ISOINDOLINE-SUBSTITUTED GLUTARIMIDE BACKBONE AND USE THEREOF” (GLUETACS THERAPEUTICS (SHANGHAI) CO., LTD., priority 2022, published 2026)

How the values were obtained:
[1] = target: human Cereblon WT GST-tagged protein (Homo sapiens (Human), UniProt Q96SW2); assay: CRBN-binding affinity, HTRF (CEREBLON BINDING kit)
Summary of the method: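 HTRF competition readout: compounds compete with a thalidomide-Re conjugate for GST-tagged wild-type human CRBN detected via Eu-labelled anti-GST antibody. Inhibition rate derived relative to protein-free blank wells.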

MM.1S cells = assay: Tumor cell proliferation IC50 (CCK-8), MM.1S; settings: Homo sapiens, MM1.S, 72 h, read-out: IC50 for inhibiting the proliferation of tumor cells, MM.1S;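 further: viability of cultured cells read by CCK-8 reagent after compound exposure, growth inhibition curves fitted to derive IC50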
IKZF1 protein = IKZF1 protein (Homo sapiens (Human), UniProt Q13422+Q96SW2); assay: Western-blot assay of substrate protein degradation in hPBMC, IKZF1; format: cell-based; settings: hPBMC cells, compound 500 nM, 24 hours, Western blot
GSPT1 protein = GSPT1 protein (Homo sapiens (Human), UniProt P15170+Q96SW2); assay: Western-blot assay of substrate protein degradation in hPBMC, GSPT1; format: cell-based; settings: hPBMC cells, compound 500 nM, 24 hours, Western blot
Daudi cells = assay: Tumor cell proliferation IC50 (CCK-8), Daudi; settings: Homo sapiens, read-out: IC50 for inhibiting the proliferation of tumor cells, Daudi;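 further: cell viability read with CCK-8 reagent after compound exposure of Daudi cells, IC50 derived from plotted growth inhibition curves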
IKZF3 protein = IKZF3 protein (Homo sapiens (Human), UniProt Q96SW2+Q9UKT9); assay: Western-blot assay of substrate protein degradation in hPBMC, IKZF3; format: cell-based; settings: hPBMC cells, compound 500 nM, 24 hours, Western blot
Mino cells = assay: Tumor cell proliferation IC50 (CCK-8), Mino; settings: Homo sapiens, 72 h, read-out: IC50 for inhibiting the proliferation of tumor cells, Mino;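 further: cell viability assessed with CCK-8 reagent after compound exposure, IC50 derived from plotted growth inhibition curves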
CCRF-CEM cells = assay: Tumor cell proliferation IC50 (CCK-8), CCRF-CEM; settings: Homo sapiens, 96 h, read-out: IC50 for inhibiting the proliferation of tumor cells, CCRF-CEM;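 further: cell viability measured with CCK-8 reagent after compound treatment, IC50 taken from plotted growth inhibition curves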

Chain of human Cereblon WT GST-tagged protein (Q96SW2 whole entry): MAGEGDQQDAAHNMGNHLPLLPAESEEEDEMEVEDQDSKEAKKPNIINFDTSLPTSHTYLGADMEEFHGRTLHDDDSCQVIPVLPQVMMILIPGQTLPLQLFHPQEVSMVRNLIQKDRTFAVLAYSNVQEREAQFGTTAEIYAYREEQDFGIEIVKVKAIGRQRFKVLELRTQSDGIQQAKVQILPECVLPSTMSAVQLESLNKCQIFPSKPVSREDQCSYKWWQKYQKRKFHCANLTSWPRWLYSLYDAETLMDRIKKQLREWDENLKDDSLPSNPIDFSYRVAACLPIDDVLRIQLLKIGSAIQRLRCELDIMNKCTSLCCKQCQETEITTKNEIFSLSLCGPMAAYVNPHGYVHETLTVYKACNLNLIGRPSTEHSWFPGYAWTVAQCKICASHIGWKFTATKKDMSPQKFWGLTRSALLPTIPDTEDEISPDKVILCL
Chain of GSPT1 protein (P15170 whole entry): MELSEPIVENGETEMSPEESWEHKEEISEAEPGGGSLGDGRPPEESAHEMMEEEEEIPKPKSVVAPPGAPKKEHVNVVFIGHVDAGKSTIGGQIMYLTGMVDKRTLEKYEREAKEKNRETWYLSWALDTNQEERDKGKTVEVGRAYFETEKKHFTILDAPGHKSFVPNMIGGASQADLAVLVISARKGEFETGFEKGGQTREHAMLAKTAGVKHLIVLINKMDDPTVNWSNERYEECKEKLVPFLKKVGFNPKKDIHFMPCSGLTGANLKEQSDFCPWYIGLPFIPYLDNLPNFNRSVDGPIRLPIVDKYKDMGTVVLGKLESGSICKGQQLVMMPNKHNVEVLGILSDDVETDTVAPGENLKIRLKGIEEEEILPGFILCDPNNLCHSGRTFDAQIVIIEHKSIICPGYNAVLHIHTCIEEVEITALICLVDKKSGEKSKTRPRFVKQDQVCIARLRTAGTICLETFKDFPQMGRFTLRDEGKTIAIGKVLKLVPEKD
Chain of GSPT1 protein (Q96SW2 whole entry): as the sequence (Q96SW2 whole entry) above
Chain of GSPT1 protein (Q16531 whole entry partner): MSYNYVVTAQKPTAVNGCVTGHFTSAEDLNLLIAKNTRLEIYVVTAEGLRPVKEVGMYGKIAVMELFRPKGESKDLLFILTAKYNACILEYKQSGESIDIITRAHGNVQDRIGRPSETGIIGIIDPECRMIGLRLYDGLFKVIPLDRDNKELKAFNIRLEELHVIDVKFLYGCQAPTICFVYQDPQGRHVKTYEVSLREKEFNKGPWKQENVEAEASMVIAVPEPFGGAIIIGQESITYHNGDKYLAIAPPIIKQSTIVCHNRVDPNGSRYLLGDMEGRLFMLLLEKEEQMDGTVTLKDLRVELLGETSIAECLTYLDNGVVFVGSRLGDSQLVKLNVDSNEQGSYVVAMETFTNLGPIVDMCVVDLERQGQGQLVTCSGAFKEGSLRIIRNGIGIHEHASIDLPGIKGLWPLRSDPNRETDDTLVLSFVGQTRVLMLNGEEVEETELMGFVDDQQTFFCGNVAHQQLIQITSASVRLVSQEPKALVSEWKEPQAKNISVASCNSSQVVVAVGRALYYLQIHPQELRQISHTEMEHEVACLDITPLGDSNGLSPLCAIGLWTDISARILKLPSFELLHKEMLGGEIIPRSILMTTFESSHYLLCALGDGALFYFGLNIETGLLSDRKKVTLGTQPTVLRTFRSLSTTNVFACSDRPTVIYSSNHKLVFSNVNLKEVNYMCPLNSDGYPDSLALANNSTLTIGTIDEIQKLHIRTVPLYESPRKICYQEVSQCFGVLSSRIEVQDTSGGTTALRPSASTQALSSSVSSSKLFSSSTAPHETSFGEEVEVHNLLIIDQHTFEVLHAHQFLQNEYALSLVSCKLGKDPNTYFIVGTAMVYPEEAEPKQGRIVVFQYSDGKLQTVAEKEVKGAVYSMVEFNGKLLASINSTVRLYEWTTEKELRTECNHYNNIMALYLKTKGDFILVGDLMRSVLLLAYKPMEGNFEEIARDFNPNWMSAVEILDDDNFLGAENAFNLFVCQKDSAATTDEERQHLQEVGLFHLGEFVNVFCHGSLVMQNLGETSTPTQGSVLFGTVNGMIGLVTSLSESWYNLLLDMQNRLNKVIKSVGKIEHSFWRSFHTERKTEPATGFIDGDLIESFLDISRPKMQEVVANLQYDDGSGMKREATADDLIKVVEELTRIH
Chain of IKZF1 protein (Q13422 whole entry): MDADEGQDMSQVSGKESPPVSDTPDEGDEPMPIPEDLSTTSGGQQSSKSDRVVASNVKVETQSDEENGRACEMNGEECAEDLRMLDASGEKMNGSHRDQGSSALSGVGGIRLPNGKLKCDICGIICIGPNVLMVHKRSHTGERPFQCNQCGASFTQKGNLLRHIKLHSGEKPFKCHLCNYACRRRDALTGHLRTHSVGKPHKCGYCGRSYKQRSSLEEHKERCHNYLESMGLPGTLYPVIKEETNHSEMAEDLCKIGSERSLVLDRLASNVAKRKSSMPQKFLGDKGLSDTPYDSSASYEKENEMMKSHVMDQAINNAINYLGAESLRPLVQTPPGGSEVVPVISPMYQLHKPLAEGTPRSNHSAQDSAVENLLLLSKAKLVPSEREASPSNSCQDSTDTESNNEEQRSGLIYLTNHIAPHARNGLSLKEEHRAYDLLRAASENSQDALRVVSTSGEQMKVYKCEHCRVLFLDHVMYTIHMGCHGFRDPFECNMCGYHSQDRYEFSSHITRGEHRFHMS
Chain of IKZF1 protein (Q96SW2 whole entry): as the sequence (Q96SW2 whole entry) above
Chain of IKZF1 protein (Q16531 whole entry partner): as the sequence (Q16531 whole entry partner) above
Chain of IKZF3 protein (Q9UKT9 whole entry): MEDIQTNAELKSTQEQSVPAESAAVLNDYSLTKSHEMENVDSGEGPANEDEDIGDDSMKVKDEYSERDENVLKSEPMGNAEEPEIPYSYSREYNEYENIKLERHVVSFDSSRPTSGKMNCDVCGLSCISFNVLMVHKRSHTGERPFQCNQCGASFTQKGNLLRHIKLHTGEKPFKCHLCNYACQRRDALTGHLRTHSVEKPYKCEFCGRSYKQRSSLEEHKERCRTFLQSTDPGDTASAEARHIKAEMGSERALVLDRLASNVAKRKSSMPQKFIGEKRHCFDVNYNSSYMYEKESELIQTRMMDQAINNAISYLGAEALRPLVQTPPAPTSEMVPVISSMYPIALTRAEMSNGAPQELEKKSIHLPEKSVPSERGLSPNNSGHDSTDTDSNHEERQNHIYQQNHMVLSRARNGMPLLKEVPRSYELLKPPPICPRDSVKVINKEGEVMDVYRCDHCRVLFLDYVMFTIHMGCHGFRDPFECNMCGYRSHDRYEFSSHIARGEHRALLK
Chain of IKZF3 protein (Q96SW2 whole entry): as the sequence (Q96SW2 whole entry) above
Chain of IKZF3 protein (Q16531 whole entry partner): as the sequence (Q16531 whole entry partner) above

Row | SMILES | IC50 [1] [nM] | IC50 (MM.1S cells) [nM] | IC50 (Daudi cells) [nM] | IC50 (Mino cells) [nM] | IC50 (CCRF-CEM cells) [nM] | residual substrate protein level, IKZF1 (IKZF1 protein) | residual substrate protein level, GSPT1 (GSPT1 protein) | residual substrate protein level, IKZF3 (IKZF3 protein)
1 | O=C1CCC(N2Cc3c(ccc(CN4CCN(CC5=C(c6ccc(F)cc6)CCCC5)CC4)c3F)C2=O)C(=O)N1 (stereo not drawn) [GT-05466, 3-(4-fluoro-5-((4-((4′-fluoro-3,4,5,6-tetrahydro-[1,1′-biphenyl]-2-yl)methyl)piperazin-1-yl)methyl)-1-oxoisoindolin-2-yl)piperidine-2,6-dione] | 700 | 10 to 50 | 50 to 100 | 10 to 50 |  | A (A represents a residual substrate protein level of <50%) | A (A represents a residual substrate protein level of <50%) | A (A represents a residual substrate protein level of <50%)
2 | O=C1CCC(N2Cc3cc(CN4CCN(Cc5ccc(-c6cccs6)s5)CC4)ccc3C2=O)C(=O)N1 (stereo not drawn) [GT-05624, 3-(5-((4-([2,2′-bithiophen]-5-ylmethyl)piperazin-1-yl)methyl)-1-oxoisoindolin-2-yl)piperidine-2,6-dione] | 470 | 100 to 500 | 500 to 1000 | 10 to 50 |  | A (A represents a residual substrate protein level of <50%) | B (B represents a residual substrate protein level of >50%) | A (A represents a residual substrate protein level of <50%)
3 | O=C1CCC(N2Cc3cc(CN4CCN(Cc5ccc(-c6ccc(Cl)cc6)s5)CC4)ccc3C2=O)C(=O)N1 (stereo not drawn) [GT-05625, 3-(5-((4-((5-(4-chlorophenyl)thiophen-2-yl)methyl)piperazin-1-yl)methyl)-1-oxoisoindolin-2-yl)piperidine-2,6-dione] | 1670 | 100 to 500 | 100 to 500 | 50 to 100 |  | B (B represents a residual substrate protein level of >50%) | B (B represents a residual substrate protein level of >50%) | B (B represents a residual substrate protein level of >50%)
4 | O=C1CCC(N2C(=O)c3ccc(CN4CCN(Cc5ccc(-c6ccc(Cl)cc6)s5)CC4)cc3C2=O)C(=O)N1 (stereo not drawn) [GT-05626, 5-((4-((5-(4-chlorophenyl)thiophen-2-yl)methyl)piperazin-1-yl)methyl)-2-(2,6-dioxopiperidin-3-yl)isoindoline-1,3-dione] |  |  | 500 to 1000 | 500 to 1000 | 500 to 1000 | B (B represents a residual substrate protein level of >50%) | B (B represents a residual substrate protein level of >50%) | B (B represents a residual substrate protein level of >50%)
5 | O=C1CCC(N2Cc3cc(CN4CCN(Cc5ccc(-c6ccc(Cl)cc6)nc5)CC4)ccc3C2=O)C(=O)N1 (stereo not drawn) [GT-05632, 3-(5-((4-((6-(4-chlorophenyl)pyridin-3-yl)methyl)piperazin-1-yl)methyl)-1-oxoisoindolin-2-yl)piperidine-2,6-dione] | 720 | 100 to 500 | 10 to 50 | < 5 |  |  |  | 
6 | O=C1CCC(N2Cc3cc(CN4CCN(Cc5ccc(-c6ccncc6)nc5)CC4)ccc3C2=O)C(=O)N1 (stereo not drawn) [GT-05633, 3-(5-((4-([2,4′-bipyridin]-5-ylmethyl)piperazin-1-yl)methyl)-1-oxoisoindolin-2-yl)piperidine-2,6-dione] | 760 |  | 100 to 500 | < 5 |  | A (A represents a residual substrate protein level of <50%) | B (B represents a residual substrate protein level of >50%) | A (A represents a residual substrate protein level of <50%)
7 | CC1(C)CC(c2ccc(Cl)cc2)=C(CN2CCN(Cc3ccc4c(c3)CN(C3CCC(=O)NC3=O)C4=O)CC2)CO1 (stereo not drawn) [GT-05672, 3-(5-((4-((4-(4-chlorophenyl)-6,6-dimethyl-5,6-dihydro-2H-pyran-3-yl)methyl)piperazin-1-yl)methyl)-1-oxoisoindolin-2-yl)piperidine-2,6-dione] | 580 | 10 to 50 | 500 to 1000 | 10 to 50 |  | A (A represents a residual substrate protein level of <50%) | A (A represents a residual substrate protein level of <50%) | A (A represents a residual substrate protein level of <50%)
8 | Cn1cccc1-c1ccccc1CN1CCN(Cc2ccc3c(c2)CN(C2CCC(=O)NC2=O)C3=O)CC1 (stereo not drawn) [GT-05683, 3-(5-((4-(2-(1-methyl-1H-pyrrol-2-yl)benzyl)piperazin-1-yl)methyl)-1-oxoisoindolin-2-yl)piperidine-2,6-dione] | 750 | 5 to 10 | 50 to 100 | 10 to 50 | 5 to 10 |  |  | 
9 | O=C1CCC(N2Cc3cc(CN4CCN(Cc5ccccc5-c5cncs5)CC4)ccc3C2=O)C(=O)N1 (stereo not drawn) [GT-05684, 3-(1-oxo-5-((4-(2-(thiazol-5-yl)benzyl)piperazin-1-yl)methyl)isoindolin-2-yl)piperidine-2,6-dione] | 540 | 50 to 100 |  | 10 to 50 | 100 to 500 | A (A represents a residual substrate protein level of <50%) | A (A represents a residual substrate protein level of <50%) | A (A represents a residual substrate protein level of <50%)

More lines, main results first:

Row | IC50 [1] [nM] | IC50 (MM.1S cells) [nM] | IC50 (Daudi cells) [nM] | IC50 (Mino cells) [nM] | IC50 (CCRF-CEM cells) [nM] | SMILES | residual substrate protein level, IKZF1 (IKZF1 protein) | residual substrate protein level, GSPT1 (GSPT1 protein) | residual substrate protein level, IKZF3 (IKZF3 protein)
10 | 310 | 100 to 500 | 500 to 1000 | 10 to 50 |  | O=C1CCC(N2Cc3cc(CN4CCN(Cc5ccc(-c6ccco6)cc5)CC4)ccc3C2=O)C(=O)N1 (stereo not drawn) [GT-05693, 3-(5-((4-(4-(furan-2-yl)benzyl)piperazin-1-yl)methyl)-1-oxoisoindolin-2-yl)piperidine-2,6-dione] | B (B represents a residual substrate protein level of >50%) | B (B represents a residual substrate protein level of >50%) | A (A represents a residual substrate protein level of <50%)
11 | 530 | 5 to 10 | 100 to 500 | 10 to 50 |  | O=C1CCC(N2Cc3cc(CN4CCN(Cc5cnccc5-c5ccc(Cl)cc5)CC4)ccc3C2=O)C(=O)N1 (stereo not drawn) [GT-05703, 3-(5-((4-((4-(4-chlorophenyl)pyridin-3-yl)methyl)piperazin-1-yl)methyl)-1-oxoisoindolin-2-yl)piperidine-2,6-dione] | A (A represents a residual substrate protein level of <50%) | B (B represents a residual substrate protein level of >50%) | A (A represents a residual substrate protein level of <50%)
12 | 660 | 10 to 50 |  | 50 to 100 | 10 to 50 | O=C1CCC(N2Cc3cc(CN4CC5(C4)CN(Cc4ccccc4-c4ccc(Cl)cc4)C5)ccc3C2=O)C(=O)N1 (stereo not drawn) [GT-05709, 3-(5-((6-((4′-chloro-[1,1′-biphenyl]-2-yl)methyl)-2,6-diazaspiro[3.3]heptan-2-yl)methyl)-1-oxoisoindolin-2-yl)piperidine-2,6-dione] | A (A represents a residual substrate protein level of <50%) | A (A represents a residual substrate protein level of <50%) | A (A represents a residual substrate protein level of <50%)
13 | 230 | 500 to 1000 | 100 to 500 | 5 to 10 |  | O=C1CCC(N2Cc3cc(CN4CCN(Cc5ccc(-c6ccco6)s5)CC4)ccc3C2=O)C(=O)N1 (stereo not drawn) [GT-05780, 3-(5-((4-((5-(furan-2-yl)thiophen-2-yl)methyl)piperazin-1-yl)methyl)-1-oxoisoindolin-2-yl)piperidine-2,6-dione] | A (A represents a residual substrate protein level of <50%) | A (A represents a residual substrate protein level of <50%) | A (A represents a residual substrate protein level of <50%)
14 | 620 | < 5 | 10 to 50 | < 5 | < 5 | O=C1CCC(N2Cc3cc(NC4CCN(C(=O)c5ccccc5-c5ccc(Cl)cc5)CC4)ccc3C2=O)C(=O)N1 (stereo not drawn) [GT-05784, 3-(5-((1-(4′-chloro-[1,1′-biphenyl]-2-carbonyl)piperidin-4-yl)amino)-1-oxoisoindolin-2-yl)piperidine-2,6-dione] |  |  | 
15 | 730 | 10 to 50 | 500 to 1000 | 10 to 50 |  | CC1(C)CCC(CN2CCN(Cc3ccc4c(c3)CN(C3CCC(=O)NC3=O)C4=O)CC2)=C(c2cncs2)C1 (stereo not drawn) [GT-05791, 3-(5-((4-((4,4-dimethyl-2-(thiazol-5-yl)cyclohex-1-en-1-yl)methyl)piperazin-1-yl)methyl)-1-oxoisoindolin-2-yl)piperidine-2,6-dione] | A (A represents a residual substrate protein level of <50%) | B (B represents a residual substrate protein level of >50%) | A (A represents a residual substrate protein level of <50%)
